Measurements taken from article PMC5701133, “Structural Mechanism of the Oxygenase JMJD6 Recognition by the Extraterminal (ET) Domain of BRD4” (Scientific Reports, 2017).

What was measured:
[1] = system: BRD4 and JMJD6 interaction; test: Co-immunoprecipitation with added nucleic acid: BRD4/JMJD6 association; assay type: binding; conditions: for association of Flag-BRD4WT with JMJD6 on addition of nucleic acid (in words): double-transfected Flag-BRD4 and His-JMJD6 HEK293T lysate, 1 μM ssRNA, dsDNA or ssDNA; for BRD4/JMJD6 association, endogenous and single-transfected IP, on addition of nucleic acid (in words): endogenous and single-transfected HEK293T IP experiments
Experimental: Incubate at 4 °C overnight.

JMJD6 = conditions: biochemical study; ref [21]; cited from earlier work

Substance | association of Flag-BRD4WT with JMJD6 on addition of nucleic acid (in words) [1] | BRD4/JMJD6 association, endogenous and single-transfected IP, on addition of nucleic acid (in words) [1] | interaction with JMJD6 (in words) (JMJD6)
ssDNA: 5′-TTTCTAGATCAGGAGCTGTCGGAAGCTATCC-3′; 31 nt (DNA, backbone not given here) | no improvements on JMJD6 interaction with BRD4 | no additional effect | 
ssRNA: 5′-AUACGAUGCUUUACGGUGCUAUUUUGU-3′; 27 nt (RNA, backbone not given here) | appears much stronger | no additional effect | can interact
